Legend:
[1] = Generation of ROS in cell free settings (2′,7′-dichlorofluorescin oxidation in the presence of H2O2); details: H2O2 10 mM; for Initial rate (dF/dt)0 of DCFH oxidation in the presence of H2O2: compound 49.5 μM, DCFH 10 μM, GSH 5 mM, EDTA 10 mM, MOPS buffer, 37 °C; for Activity in DCFH oxidation assay relative to prodrug 5: more active than 5, 49.5 μM
Procedure: 2′,7′-Dichlorofluorescin diacetate (DCFH-DA, 4.9 mg) was dissolved in 100 µL DMF and mixed with 0.1 M NaOH (900 µL). This mixture was incubated on a shaker for 30 min at 25 °C in the dark to obtain 10 mM 2′,7′-dichlorofluorescin (DCFH) stock solution. Next, 3-(N-morpholino)propanesulfonic acid buffer (MOPS buffer 100 mM, pH: 7.4) containing N,N,N’,N’-ethylenediaminetetraacetic acid (EDTA, 10 mM), glutathione (GSH, 5 mM) and H2O2 (10 mM) was prepared. Finally, DCFH was diluted in this buffer to 10 µM as the final concentration. Monitoring of the fluorescence was started (λex: 501 nm, λem: 525 nm). […] DMF and FeSO4 in DMF were used as controls. The measurement was conducted for 300 min (Table S2, Figure 1A).

BL-2 cells = test: Viability of suspension BL-2 cells (MTT); type: cell-based
Procedure: The suspension of BL-2 cells in the RPMI 1640 medium containing 5% FBS (for 24- and 48 h assays) or 10% FBS (for 96 h assays) 1% L-glutamine, and 1% penicillin/streptomycin was spread in the wells of a 96-well microtiter plate. Every plate contained 50,000 cells (with the exception of the 96h-experiment, for which 25,000 cells were used) per well per 100 μL. Stock solutions of prodrugs of different concentrations (1 μL, solvent DMSO) were added to the wells and incubated for 24–96 h. Four experiments were conducted for each concentration of the prodrug. Finally, 3-(4,5-dimethylthiazol-2-yl)-2,5-diphenyltetrazolium bromide (MTT; 20 μL of the solution prepared by dissolving MTT (5 mg) in PBS buffer (1 mL)) was added to each well, incubated for 3 h, treated with sodium dodecyl sulfate (SDS) solution (90 μL, 10% solution in 0.01 M aqueous HCl), and incubated overnight. Then the intensity of absorbance at 590 nm was measured (MTT is converted to blue dye (λmax = 590 nm) in live cells). The absorbance at 690 nm was taken as a baseline value.

A2780 cells = test: Viability of adherent A2780 cells (MTT); type: cell-based, human
Procedure: (§1) Adherent A2780, DU-145 and NHDF cells were grown as mentioned before. Then, the cells were resuspended in the RPMI 1640 (DMEM for HDFa cell line) medium containing 5% FBS (for 24- and 48 h assays) or 10% FBS (for 96 h assays) 1% L-glutamine, and 1% penicillin/streptomycin. This suspension was spread in the wells of a 96-well microtiter plate. Every well in the plates contained 25,000 cells (exceptions: 12,500 cells for the 96h-assay and 10,000 cells for experiments with HDFa cell line) per well per 100 μL and was left at 37 °C in the chamber filled with CO2 (5%) overnight. Stock solutions of prodrugs of different concentrations (1 μL, solvent DMSO) were added to the wells and incubated for 24–96 h. Four experiments were conducted for each concentration of the prodrug. Finally, 3-(4,5-dimethylthiazol-2-yl)-2,5-diphenyltetrazolium bromide (MTT; 20 μL of the solution prepared by dissolving MTT (5 mg) in PBS buffer (1 mL)) was added to each well, incubated for 3 h, treated with sodium dodecyl sulfate (SDS) solution (90 μL, 10% solution in 0.01 M aqueous HCl), and incubated overnight. Then the intensity of absorbance at 590 nm was measured (MTT is converted to blue dye (λmax = 590 nm) in live cells). The absorbance at 690 nm was taken as a baseline value.

DU-145 cells = test: Viability of adherent DU-145 cells (MTT); type: cell-based, human
Procedure: as §1

Jurkat cells [2] = test: Viability and cell death of Jurkat cells (Annexin A5-FITC/PI flow cytometry); type: cell-based, human; details: for IC50: 48 h incubation; for Mechanism of cell death of Jurkat cells: 48 h, Ax/PI staining
Procedure: Jurkat cells were counted in MUSE Cell Analyzer using MUSE® Count &Viability Assay Kit (Merck-Millipore, Billerica, MA, USA) and adjusted to a density of 1.0 × 10^5/mL in RPMI 1640 medium (with 10% FCS and 1% glutamine). A total of 9000 cells per well per 90 μL were seeded into 96 well culture plates. The 50 mM prodrug stock solutions were diluted to 300, 100, 30, and 10 μM in cell culture medium and 10 μL of the dilutions was pipetted to the cells, receiving final test concentrations of 30, 10, 3, and 1 μM. Every concentration was tested in triplicates. Cells with corresponding amounts of DMSO served as negative controls. […] was incubated with 200 μL of freshly prepared staining solution, consisting of 1 μl Annexin A5-Fitc, 0.4 μL 1,1′,3,3,3′,3′-hexamethylindodicarbocyanine iodide (DiIC1(5)) (both from Thermo Fisher Scientific, Waltham, MA, USA), 66.6 ng propidiumiodide (PI) and 33 μM monobromobimane (MBB, both from Sigma-Aldrich, Taufkirchen, Germany) per 1 mL Ringer’s solution (Fresenius Kabi AG, Bad Homburg, Germany). Cells were incubated for 20 min at 4 °C and then analyzed in Gallios cytofluorometer™ (Beckman Coulter, Fullerton, CA, USA). Fitc and propidium iodide were excited at 488 nm; Fitc fluorescence was recorded on the FL1 sensor (525/38 nm band pass, BP) and propidium iodide fluorescence was detected on FL3 sensor (620/30 nm BP), DiIC1(5) fluorescence was excited at 638 nm and detected on FL6 sensor at 675/20 nm. Monobromobimane fluorescence was excited at 405 nm and detected on FL9 sensor at 430/40 nm. To eliminate any fluorescence bleed-through, electronic compensation was used. Data were analyzed employing Kaluza™ software Version 1.2 (Beckman Coulter, Fullerton, CA, USA) and processed in Microsoft Excel. Cells negative for Annexin A5- Fitc and propidium iodide were considered viable. IC50 values were determined by fitting the % values of Ax-PI- cells versus drug concentration with a sigmoidal curve using GraphPad Prism software. Reduced glutathione (an intracellular thiol) can be detected by monobromobimane, a dye that becomes fluorescent after non-enzymatic binding to thiols. For analysis of the amount of mitochondrial membrane potential or reduced glutathione, the mean fluorescence index (MFI) was determined from viable cells by gating on Ax-PI-events.

HDFa cells = test: Viability of adherent HDFa cells (MTT); type: cell-based, human; details: 48 h incubation, normal cells
Procedure: as §1

Jurkat cells [3] = test: Mitochondrial membrane potential of Jurkat cells (DiIC1(5)); type: cell-based, human; details: 48 h; 5 at nontoxic concentrations ≤ 10 μM; 12 at all tested concentrations
Procedure: Jurkat cells were counted in MUSE Cell Analyzer using MUSE® Count &Viability Assay Kit (Merck-Millipore, Billerica, MA, USA) and adjusted to a density of 1.0 × 10^5/mL in RPMI 1640 medium (with 10% FCS and 1% glutamine). A total of 9000 cells per well per 90 μL were seeded into 96 well culture plates. The 50 mM prodrug stock solutions were diluted to 300, 100, 30, and 10 μM in cell culture medium and 10 μL of the dilutions was pipetted to the cells, receiving final test concentrations of 30, 10, 3, and 1 μM. Every concentration was tested in triplicates. Cells with corresponding amounts of DMSO served as negative controls. […] Cells were incubated for 20 min at 4 °C and then analyzed in Gallios cytofluorometer™ (Beckman Coulter, Fullerton, CA, USA). Fitc and propidium iodide were excited at 488 nm; Fitc fluorescence was recorded on the FL1 sensor (525/38 nm band pass, BP) and propidium iodide fluorescence was detected on FL3 sensor (620/30 nm BP), DiIC1(5) fluorescence was excited at 638 nm and detected on FL6 sensor at 675/20 nm. Monobromobimane fluorescence was excited at 405 nm and detected on FL9 sensor at 430/40 nm. To eliminate any fluorescence bleed-through, electronic compensation was used. Data were analyzed employing Kaluza™ software Version 1.2 (Beckman Coulter, Fullerton, CA, USA) and processed in Microsoft Excel. […]

[4] = Solubility of prodrugs in aqueous buffers (absorbance at 790 nm); type: physicochemical
Procedure: Prodrugs 5, 7 and 9 (known control) were dissolved in DMSO at concentrations of 15, 10, 5, 2, 1.5, 1, and 0.2 mM. These solutions (10 μL) were transferred to quartz cuvettes containing 990 μL of either Dulbecco's phosphate-buffered saline (DPBS) or Roswell Park Memorial Institute (RPMI) medium containing 20% of fetal bovine serum (FBS) to obtain solutions (or suspensions) with final concentrations of prodrugs-150, 100, 50, 20, 15, 10, and 2 μM. The absorbance at 790 nm of the resulting solutions/suspensions was measured and plotted as a function of the concentration of prodrugs.

Compound	Initial rate (dF/dt)0 of DCFH oxidation in the presence of H2O2 [1]	Activity in DCFH oxidation assay relative to prodrug 5 [1]	IC50 (BL-2 cells; 24 h incubation)	IC50 (BL-2 cells; 48 h incubation)	IC50 (BL-2 cells; 96 h incubation)	IC50 (A2780 cells; 24 h incubation)	IC50 (A2780 cells; 48 h incubation)	IC50 (A2780 cells; 96 h incubation)	IC50 (DU-145 cells; 24 h incubation)	IC50 (DU-145 cells; 48 h incubation)	IC50 (DU-145 cells; 96 h incubation)	IC50 (Jurkat cells [2])	IC50 (BL-2 cells; BL2, 48 h incubation)	Mechanism of cell death of Jurkat cells (Jurkat cells [2])	also measured
O=S(=O)([O-])[O-].[Fe+2] [FeSO4]	22.3 a.u. × min^−1	2.9 fold	–	–	–	–	–	–	–	–	–	–	–	–	–
[Fe+2].c1cc[cH-]c1.c1cc[cH-]c1 [control 11, ferrocene]	–	–	> 50 µM	> 50 µM	> 50 µM	> 50 µM	> 50 µM	> 50 µM	> 50 µM	> 50 µM	> 50 µM	> 50 µM	–	–	–
CCCC[P+](c1ccccc1)(c1ccccc1)c1ccccc1 [control 12]	–	–	–	–	–	–	–	–	–	–	–	–	0.5 ± 0.2 µM	mostly via necrosis	IC50 (BL-2 cells; BL2, 24 h incubation): 2 ± 1 µM; IC50 (BL-2 cells; BL2, 96 h incubation): 0.3 ± 0.1 µM; IC50 (HDFa cells; Homo sapiens, HDFa): < 1 µM; Effect on mitochondrial potential of Jurkat cells (Jurkat cells [3]): reduces the mitochondrial potential
C#Cc1ccc(-c2c3ccc(=[N+](C)C)cc-3oc3cc(N(C)C)ccc23)c(C(=O)[O-])c1 [control 13]	–	–	–	–	–	–	–	–	–	–	–	–	35 ± 6 µM	–	IC50 (A2780 cells; Homo sapiens, A2780, 48 h incubation): > 50 µM
CC1(C)OB(c2ccc(COC(=O)N(Cc3cccc(CN4CCCCC4)c3)[c-]3cccc3)cc2)OC1(C)C.[Fe+2].c1cc[cH-]c1 [prodrug 8]	17.1 a.u. × min^−1	2.2 fold	–	–	–	–	–	–	–	–	–	–	–	–	–
COC(=O)CCCCCn1cc(CN(C(=O)OCc2ccc(B3OC(C)(C)C(C)(C)O3)cc2)[c-]2cccc2)nn1.[Fe+2].c1cc[cH-]c1 [prodrug 9]	–	–	37 ± 2 µM	35 ± 2 µM	33 ± 2 µM	42 ± 3 µM	32 ± 3 µM	30 ± 5 µM	> 50 µM	47 ± 2 µM	35 ± 3 µM	30 ± 4 µM	–	mostly via necrosis	Solubility in DPBS ([4]; DPBS containing DMSO (1%, v/v)): 90 ± 10 µM; Solubility in FBS ([4]; RPMI medium containing 20% FBS and DMSO (1%, v/v)): 114 ± 11 µM; IC50 (HDFa cells): > 50 µM
